Assay results taken from ChEMBL document CHEMBL1134877, “Design, synthesis and biological activity of carbohydrate-containing peptidomimetics as new ligands for the human tachykinin NK-2 receptor” (Bioorg Med Chem Lett, 2002).

molecular target: T1, Substance-K receptor (Homo sapiens, UniProt P21452); assay: Displacement of [125I]NKA from human Tachykinin receptor 2 expressed in CHO cells; assay type: cell-based
T1 sequence (P21452 whole entry): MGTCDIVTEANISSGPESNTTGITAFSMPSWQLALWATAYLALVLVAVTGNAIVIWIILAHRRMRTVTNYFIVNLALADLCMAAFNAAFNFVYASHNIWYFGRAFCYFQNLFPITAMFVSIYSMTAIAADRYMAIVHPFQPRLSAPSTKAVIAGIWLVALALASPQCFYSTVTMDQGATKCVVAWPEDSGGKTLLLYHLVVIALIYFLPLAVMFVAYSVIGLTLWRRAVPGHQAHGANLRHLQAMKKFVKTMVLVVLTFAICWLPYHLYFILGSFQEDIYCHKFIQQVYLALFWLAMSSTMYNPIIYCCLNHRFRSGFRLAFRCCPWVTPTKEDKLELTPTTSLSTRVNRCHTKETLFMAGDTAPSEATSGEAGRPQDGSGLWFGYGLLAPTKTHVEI

SMILES	Ki [µM]
O=C(C1=C(c2ccccc2)OC2OC(COCc3ccccc3)C(OCc3ccccc3)C(OCc3ccccc3)C2[S+]1[O-])c1ccccc1 (stereo not given)	0.79
CCOC(=O)C1=C(C)OC2OC(COCc3ccccc3)C(OCc3ccccc3)C(OCc3ccccc3)C2S1 (stereo not given)	12.6
O=C(C1=C(c2ccccc2)OC2OC(COCc3ccccc3)C(OCc3ccccc3)C(OCc3ccccc3)C2S1(=O)=O)c1ccccc1 (stereo not given)	5.01
O=C(C1=C(c2ccccc2)OC2OC(COCc3ccccc3)C(OCc3ccccc3)C(OCc3ccccc3)C2S1)c1ccccc1 (stereo not given)	> 10
CCOC(=O)C1=C(C)OC2OC(CO)C(OCc3ccccc3)C(O)C2S1 (stereo not given)	> 10
CC1=C(C(=O)Oc2ccccc2)SC2C(O1)OC(COCc1ccccc1)C(OCc1ccccc1)C2OCc1ccccc1 (stereo not given)	> 10
CC1=C(C(=O)Oc2ccccc2)[S+]([O-])C2C(O1)OC(COCc1ccccc1)C(OCc1ccccc1)C2OCc1ccccc1 (stereo not given)	0.4

Results, then the molecule that gave them:

Ki [µM]	SMILES
12.6	CCOC(=O)C1=C(C)OC2OC(COCc3ccccc3)C(OCc3ccccc3)C(O)C2S1 (stereo not given)
4	CCOC(=O)C1=C(C)OC2OC(CO)C(OCc3ccccc3)C(OCc3ccccc3)C2S1 (stereo not given)
4	CCOC(=O)C1=C(C)OC2OC(CO)C(OCc3ccccc3)C(OCc3ccccc3)C2[S+]1[O-] (stereo not given)
> 10	CCOC(=O)C1=C(C)OC2OC(CO)C(OCc3ccccc3)C(O)C2[S+]1[O-] (stereo not given)
> 10	CCOC(=O)C1=C(C)OC2OC(COCc3ccccc3)C(O)C(OCc3ccccc3)C2[S+]1[O-] (stereo not given)
0.25	CCOC(=O)C1=C(C)OC2OC(COCc3ccccc3)C(OCc3ccccc3)C(OCc3ccccc3)C2[S+]1[O-] (stereo not given)
0.79	CCOC(=O)C1=C(C)OC2OC(COCc3ccccc3)C(OCc3ccccc3)C(O)C2[S+]1[O-] (stereo not given)

species: Oryctolagus cuniculus; assay: Antagonist activity on isolated endothelium-deprived rabbit pulmonary artery preparations when evaluated against a contractile concentration response curve to NKA; assay type: functional

SMILES	pKB
CCOC(=O)C1=C(C)OC2OC(COCc3ccccc3)C(OCc3ccccc3)C(OCc3ccccc3)C2[S+]1[O-] (stereo not given)	6
